We go through two compounds from patent US20030109448A1, “Methods of promoting uptake and nuclear accumulation of polyamides in eukaryotic cells” (priority 2001, published 2003).

The subject of one assay is RSF cells. Briefly: Effect of P-gp inhibitors on intracellular distribution of Compound 1. The class given is cell-based, human.
Assay [1] concerns HCT116 human colon cancer cells. Briefly: Intracellular distribution of fluorescent-labeled polyamides by fluorescence microscopy. The class given is cell-based. The conditions noted are these: HCT116, overnight at 37° C. As for the experimental part: Previously established low passage number human colon cancer HCT116 cells were cultured as monolayers and maintained at 37° C. in a humidified incubator with 5% CO2 in buffered medium consisting of RPMI 1640 (GIBCO, Life Technologies, Rockville, Md.) supplemented with 2 mM L-glutamine, 10% fetal bovine serum (GIBCO), 100 Units/ml Penicillin-Streptomycin and 25 μg/ml Gentamicin. Previously established low passage number human rheumatoid synovial fibroblasts (RSFs) were cultured in DMEM (GIBCO 11995-040) supplemented with 15% FBS, 1% glutamine, and 50 µg/ml Gentamycin.
HCT116 cells or RSF cells (8×10^5) were plated on 25-mm round glass coverslips in 30-mm wells and incubated for 24 hr to allow cells to adhere. […]
Live wet mounted cells were examined and photographed using an Olympus AX70 Microscope equipped with fluorescence optics and a Sony 3CCD color video camera. DAPI was detected using a bandpass 405±20 nm excitation filter, a 420 nm dichroic beam splitter, and a ≧450 emission filter (DAPI filter set). BODIPY and fluorescein conjugated polyamides were selectively detected using a bandpass 485±11 nm excitation filter, a 505 nm dichroic beam splitter, and a 530±15 nm emission filter (fluorescein filter set). Organelle-specific probes were detected using a 546+/−5 nm excitation filter, a 570 nm dichroic beam splitter and a 590 nm longpass emission filter (Rhodamine filter set). […]

Entries after “also recorded” stand apart in the source; their conditions may differ.

`COc1ccc(CCN(C)CCCC(C#N)(c2ccc(OC)c(OC)c2)C(C)C)cc1OC` (stereo not shown) [verapamil]: in the assay with RSF cells, the “effect on intracellular distribution of Compound 1” value was “dramatic reduction in cytoplasmic fluorescence accompanied by a re-distribution of Compound 1 to the nucleus” and the “location of Compound 1 green fluorescence in presence of inhibitor” value was “observed in the nuclei in the presence of verapamil”.
In the case of “Im-Im-Py-Py-γ-Py-Py-Py-Py-β-Ta-FITC [Compound 2]”, in assay [1], the fluorescent-filled vesicles result is “absent” and the “nuclear fluorescence (nuclear localization)” value is recorded as “nuclei are brightly stained; also recorded: observed in the nuclei of the cells”.
